This note sets out measurements from US9605005B2, “Alkynyl alcohols and methods of use” (Genentech, Inc., priority 2013, dated 2017).

As a reminder, the Ki is a dissociation constant, usually derived from enzyme kinetics or from competition with a known ligand.

The target in this assay is nuclear factor-kappa B (NF-kB)-inducing kinase (NIK) (Homo sapiens (Human), UniProt Q99558). Description: NIK enzyme inhibition assay (Transcreener ADP, NIK ADP-FP). It counts as biochemical. To be noted: purified NIK 0.5 nM, 10 μM ATP, fluorescence polarization; read-out: NIK ADP-FP (Ki μM). (Polarisation of emitted light reports the rotation of a fluorescent probe.)
Sequence of nuclear factor-kappa B (NF-kB)-inducing kinase (NIK) (Q99558 whole entry): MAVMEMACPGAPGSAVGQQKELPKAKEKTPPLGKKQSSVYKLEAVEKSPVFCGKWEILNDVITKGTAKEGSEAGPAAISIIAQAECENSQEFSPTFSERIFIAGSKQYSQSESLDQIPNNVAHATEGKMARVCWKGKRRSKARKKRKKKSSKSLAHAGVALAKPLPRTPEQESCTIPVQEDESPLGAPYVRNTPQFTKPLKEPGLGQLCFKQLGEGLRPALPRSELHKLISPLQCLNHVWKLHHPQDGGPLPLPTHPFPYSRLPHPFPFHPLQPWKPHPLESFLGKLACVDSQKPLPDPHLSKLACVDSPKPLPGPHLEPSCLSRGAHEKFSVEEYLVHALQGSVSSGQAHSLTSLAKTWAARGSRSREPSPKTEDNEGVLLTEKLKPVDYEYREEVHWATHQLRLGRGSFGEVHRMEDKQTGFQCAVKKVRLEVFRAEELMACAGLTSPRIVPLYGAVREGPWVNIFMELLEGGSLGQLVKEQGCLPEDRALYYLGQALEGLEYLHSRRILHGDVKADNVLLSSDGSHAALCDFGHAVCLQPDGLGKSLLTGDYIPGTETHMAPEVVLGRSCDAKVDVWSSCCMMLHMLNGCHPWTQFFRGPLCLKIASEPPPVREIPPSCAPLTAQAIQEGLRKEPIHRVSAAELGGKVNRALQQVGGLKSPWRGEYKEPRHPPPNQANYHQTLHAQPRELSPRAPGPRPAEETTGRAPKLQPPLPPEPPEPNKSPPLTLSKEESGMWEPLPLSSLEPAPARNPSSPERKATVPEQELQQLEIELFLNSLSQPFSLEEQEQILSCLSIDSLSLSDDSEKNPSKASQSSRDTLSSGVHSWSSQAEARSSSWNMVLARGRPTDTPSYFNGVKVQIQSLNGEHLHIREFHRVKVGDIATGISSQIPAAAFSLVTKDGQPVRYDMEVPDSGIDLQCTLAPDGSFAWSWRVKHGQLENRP
For the compound `CN1CC[C@@](O)(C#Cc2ccnc(-n3nc(C(N)=O)c4c3CC(C)(C)CC4)c2)C1=O` [Compound 4, 1-[4-[2-[(3R)-3-hydroxy-1-methyl-2-oxo-pyrrolidin-3-yl]ethynyl]-2-pyridyl]-6,6-dimethyl-5,7-dihydro-4H-inda-zole-3-carboxamide], the Ki was determined as 0.00292 µM.
For `CN1CC[C@@](O)(C#Cc2ccnc(-n3nc(C(N)=O)c4c3C[C@]3(C)C[C@@H]3C4)c2)C1=O` [Compound 5, (4aR,5aS)-1-[4-[2-[(3R)-3-hydroxy-1-methyl-2-oxo-pyrroli-din-3-yl]ethynyl]-2-pyri-dyl]-5a-methyl-4,4a,5,6-tetrahydrocyclopropa[f]inda-zole-3-carboxamide] the value was 0.0139 µM.
Regarding `CN1CC[C@@](O)(C#Cc2ccnc(-n3nc(C(N)=O)c4c3CC(C)(C)[C@@H](OCc3ccccc3)C4)c2)C1=O` [Compound 7, (5S)-5-benzyloxy-1-[4-[2-[(3R)-3-hydroxy-1-methyl-2-oxo-pyrrolidin-3-yl]ethynyl]-2-pyridyl]-6,6-dimethyl-5,7-dihydro-4H-indazole-3-carboxamide], the inhibition constant Ki amounted to 0.0455 µM.
As for `CN1CC[C@@](O)(C#Cc2ccnc(-n3nc(C(N)=O)c4c3CC(C)(C)[C@H](OCc3ccccc3)C4)c2)C1=O` [Compound 8, (5R)-5-benzyloxy-1-[4-[2-[(3R)-3-hydroxy-1-methyl-2-oxo-pyrrolidin-3-yl]ethynyl]-2-pyridyl]-6,6-dimethyl-5,7-dihydro-4H-indazole-3-carboxamide], the figure is 0.0724 µM; as for `CN1CC[C@@](O)(C#Cc2ccnc(-n3nc(C(N)=O)c4c3CC(C)(C)[C@H](O)C4)c2)C1=O` [Compound 9, (5R)-5-hydroxy-1-[4-[2-[(3R)-3-hydroxy-1-methyl-2-oxo-pyrrolidin-3-yl]ethynyl]-2-pyridyl]-6,6-dimethyl-5,7-dihydro-4H-indazole-3-carboxamide], 0.0332 µM; as for `CN1CC[C@@](O)(C#Cc2ccnc(-n3nc(C(N)=O)c4c3CC(C)(C)[C@@H](O)C4)c2)C1=O` [Compound 11, (5S)-5-hydroxy-1-[4-[2-[(3R)-3-hydroxy-1-methyl-2-oxo-pyrrolidin-3-yl]ethynyl]-2-pyridyl]-6,6-dimethyl-5,7-dihydro-4H-indazole-3-carboxamide], 0.0134 µM.
As for `CN1CC[C@@](O)(C#Cc2ccnc(-n3nc(C(N)=O)c4c3CCC[C@H]4NC(=O)C3CC3)c2)C1=O` [Compound 15, (4R)-4-(cyclopropanecarbo-nylamino)-1-[4-[2-[(3R)-3-hydroxy-1-methyl-2-oxo-pyrrolidin-3-yl]ethynyl]-2-pyridyl]-4,5,6,7-tetrahydroinda-zole-3-carboxamide], the figure is 0.382 µM; as for `CN1CC[C@@](O)(C#Cc2ccnc(-n3nc(C(N)=O)c4c3CCC[C@@H]4NC(=O)C3CC3)c2)C1=O` [Compound 17, (4S)-4-(cyclopropanecarbo-nylamino)-1-[4-[2-[(3R)-3-hydroxy-1-methyl-2-oxo-pyrrolidin-3-yl]ethynyl]-2-pyridyl]-4,5,6,7-tetrahydroin-dazole-3-carboxamide], 0.146 µM; as for `CC(=O)N1CCc2c(c(C(N)=O)nn2-c2cccc(C#C[C@]3(O)CCN(C)C3=O)c2)C1` [Compound 19, 5-acetyl-1-[3-[2-[(3R)-3-hy-droxy-1-methyl-2-oxo-pyrroli-din-3-yl]ethynyl]phenyl]-6,7-dihydro-4H-pyrazolo[4,3-c]pyridine-3-carboxamide], 0.0102 µM.
For `CN1CC[C@@](O)(C#Cc2cccc(-n3nc(C(N)=O)c4c3CCN(C(=O)C3CC3)C4)c2)C1=O` [Compound 20, 5-(cyclopropanecarbonyl)-1-[3-[2-[(3R)-3-hydroxy-1-methyl-2-oxo-pyrrolidin-3-yl]ethynyl]phenyl]-6,7-dihydro-4H-pyrazolo[4,3-c]pyri-dine-3-carboxamide] the value was 0.00489 µM; for `CN1CC[C@@](O)(C#Cc2cccc(-n3nc(C(N)=O)c4c3CCNC4)c2)C1=O` [Compound 21, 1-[3-[2-[(3R)-3-hydroxy-1-methyl-2-oxo-pyrrolidin-3-yl]ethynyl]phenyl]-4,5,6,7-tetra-hydropyrazolo[4,3-c]pyri-dine-3-carboxamide], 0.233 µM.
With `COc1cccc2c(C(N)=O)nn(-c3cccc(C#C[C@]4(O)CCN(C)C4=O)c3)c12` [Compound 23, 1-[3-[2-[(3R)-3-hydroxy-1-methyl-2-oxo-pyrrolidin-3-yl]ethynyl]phenyl]-7-methoxy-indazole-3-carboxamide], the Ki was 0.00975 µM.
For `CN1CC[C@@](O)(C#Cc2cccc(-n3nc(C(N)=O)c4c3CCCC4(F)F)c2)C1=O` [Compound 24, 4,4-difluoro-1-[3-[2-[(3R)-3-hydroxy-1-methyl-2-oxo-pyrrolidin-3-yl]ethynyl]phe-nyl]-6,7-dihydro-5H-indazole-3-carboxamide] the value was 0.00762 µM; for `C[C@@](O)(C#Cc1cccc(-n2nc(C(N)=O)c3ccccc32)c1)c1ncccn1` [Compound 28, 1-[3-[(3R)-3-hydroxy-3-pyri-midin-2-yl-but-1-ynyl]phe-nyl]indazole-3-carboxamide], 0.0352 µM.
For `Cc1nc([C@](C)(O)C#Cc2cccc(-n3nc(C(N)=O)c4ccccc43)c2)no1` [Compound 29, 1-[3-[(3R)-3-hydroxy-3-(5-methyl-1,2,4-oxadiazol-3-yl)but-1-ynyl]phenyl]indazole-3-carboxamide] the value was 0.0367 µM; for `CN1CC[C@@](O)(C#Cc2cccc(-n3nc(C(N)=O)c4c3CCC[C@H]4NC(=O)C3CC3)c2)C1=O` [Compound 32, (4R)-4-(cyclopropanecarbonyl-amino)-1-[3-[2-[(3R)-3-hydroxy-1-methyl-2-oxo-pyrroli-din-3-yl]ethynyl]phenyl]-4,5,6,7-tetrahydroindazole-3-carboxamide], 1.04 µM; for `CN1CC[C@@](O)(C#Cc2cccc(-n3nc(C(N)=O)c4c3CCN(C3COC3)C4)c2)C1=O` [Compound 33, 1-[3-[2-[(3R)-3-hydroxy-1-methyl-2-oxo-pyrrolidin-3-yl]ethynyl]phenyl]-5-(oxetan-3-yl)-6,7-dihydro-4H-pyra-zolo[4,3-c]pyridine-3-carbox-amide], 0.259 µM.
`CN1CC[C@@](O)(C#Cc2cccc(-n3nc(C(N)=O)c4c3CCC[C@H]4n3cccn3)c2)C1=O` [Compound 34, (4R)-1-[3-[2-[(3R)-3-hydroxy-1-methyl-2-oxo-pyrrolidin-3-yl]ethynyl]phenyl]-4-pyrazol-1-yl-4,5,6,7-tetrahydro-indazole-3-carboxamide]: the Ki is 0.606 µM.
As for `CN1CC[C@@](O)(C#Cc2cccc(-n3nc(C(N)=O)c4c3CCC[C@@H]4NC(=O)C3CC3)c2)C1=O` [Compound 37, (4S)-4-(cyclopropanecarbo-nylamino)-1-[3-[2-[(3R)-3-hydroxy-1-methyl-2-oxo-pyrrolidin-3-yl]ethynyl]phen-yl]-4,5,6,7-tetrahydroindazole-3-carboxamide], the figure is 0.193 µM.
As for `CN1CC[C@@](O)(C#Cc2cccc(-n3nc(C(N)=O)c4c3CCC[C@@H]4n3cccn3)c2)C1=O` [Compound 38, (4S)-1-[3-[2-[(3R)-3-hydroxy-1-methyl-2-oxo-pyrrolidin-3-yl]ethynyl]phenyl]-4-pyrazol-1-yl-4,5,6,7-tetrahydro-indazole-3-carboxamide], the figure is 0.0101 µM; as for `CN1CC[C@@](O)(C#Cc2cccc(-n3nc(C(N)=O)c4c3CCN(CC(C)(C)O)C4)c2)C1=O` [Compound 40, 1-[3-[2-[(3R)-3-hydroxy-1-methyl-2-oxo-pyrrolidin-3-yl]ethynyl]phenyl]-5-(2-hy-droxy-2-methyl-propyl)-6,7-dihydro-4H-pyrazolo[4,3-c]pyridine-3-carboxamide], 0.071 µM.
For `C[C@H](O)c1ccc2c(c1)c(C(N)=O)nn2-c1cccc(C#C[C@]2(O)CCN(C)C2=O)c1` [Compound 45, 5-[(1S)-1-hydroxyethyl]-1-[3-[2-[(3R)-3-hydroxy-1-meth-yl-2-oxo-pyrrolidin-3-yl]ethynyl]phenyl]indazole-3-carboxamide] the value was 0.00233 µM.
Consider `CN1CC[C@@](O)(C#Cc2cccc(-n3nc(C(N)=O)c4c3C[C@@]3(C)C(C4)C3(F)F)c2)C1=O` (stereo partly drawn) [Compound 47, (5aS)-5,5-difluoro-1-[3-[2-[(3R)-3-hydroxy-1-methyl-2-oxo-pyrrolidin-3-yl]ethyn-yl]phenyl]-5a-methyl-4a,6-dihydro-4H-cyclopropa[f] indazole-3-carboxamide], for which the inhibitory constant (Ki) amounted to 0.0226 µM.
Turning to `CN1CC[C@@](O)(C#Cc2cccc(-n3nc(C(N)=O)c4cc(CN5CCCC5)ccc43)c2)C1=O` [Compound 48, 1-[3-[2-[(3R)-3-hydroxy-1-methyl-2-oxo-pyrrolidin-3-yl]ethynyl]phenyl]-5-(pyrro-lidine-1-ylmethyl)indazole-3-carboxamide], the inhibition constant (Ki) is 0.0647 µM.
As for `CN1CC[C@@](O)(C#Cc2cccc(-n3nc(C(N)=O)c4c3C[C@]3(C)C(C4)C3(F)F)c2)C1=O` (stereo partly drawn) [Compound 50, (5aR)-5,5-difluoro-1-[3-[2-[(3R)-3-hydroxy-1-methyl-2-oxo-pyrrolidin-3-yl]ethyn-yl]phenyl]-5a-methyl-4a,6-dihydro-4H-cyclopropa[f]inda-zole-3-carboxamide], the figure is 0.17 µM; as for `CN1CC[C@@](O)(C#Cc2ccnc(-n3nc(C(N)=O)c4c3C3CC(C4)C3)c2)C1=O` [Compound 58, (R)-1-(4-((3-hydroxy-1-meth-yl-2-oxopyrrolidin-3-yl)eth-ynyl)pyridin-2-yl)-4,5,6,7-tetrahydro-1H-5,7-methano-indazole-3-carboxamide], 0.0187 µM; as for `CN1CC[C@@](O)(C#Cc2ccnc(-n3nc(C(N)=O)c4c3CC3CC4C3)c2)C1=O` [Compound 59, (R)-1-(4-((3-hydroxy-1-meth-yl-2-oxopyrrolidin-3-yl)eth-ynyl)pyridin-2-yl)-4,5,6,7-tetrahydro-1H-4,6-methano-indazole-3-carboxamide], 0.0072 µM.
For `CN1CC[C@@](O)(C#Cc2ccnc(-n3nc(C(N)=O)c4c3C[C@H](O)CC4)c2)C1=O` [Compound 61, (6R)-6-hydroxy-1-[4-[2-[(3R)-3-hydroxy-1-methyl-2-oxo-pyrrolidin-3-yl]ethynyl]-2-pyridyl]-4,5,6,7-tetrahydro-indazole-3-carboxamide] the value was 0.00446 µM.
